“Also recorded” adds a separate entry of the source.

The test system of one data set is U87 GBM cells. Nature of the data set: Cell death ELISA in TMZ-resistant U87 cells. It is filed as cell-based. As to conditions: U87, TMZ (500 μM) and inhibitor (10 μM), 72 hr, FIG. 4. The procedure: (§1) After 72 hr, cell death was determined by a commercial cell death ELISA.
(§2) To further test the bioactivity of bromodomain inhibitors, T98G and U87 GBM cell lines were used that are highly resistant to the death inducing activity of TMZ. […] Because of their high TMZ resistance, these cells may serve as cell models for TMZ resistant GBM cancer stem-like cells.

A further data set deals with T1, BRG1 bromodomain (Homo sapiens, UniProt P51532).
T1 construct: expressed in transfected cells; host or cells: MT330 glioblastoma cells
Nature of the data set: Cellular thermal shift assay (CETSA), BRG1 bromodomain construct in MT330 cells. It is filed as binding. Conditions: FIG. 3. The procedure: After heating over a temperature range from 44.5° C. to 55.6° C. for 5 min, the cells were lysed, placed on ice at 4° C. and then immunoblotted for BRG1 or actin.
(§3) For the CETSA, MT330 cells expressing the BRM (FIG. 6B), or BRG1 (FIG. 6C) the BRD construct were treated with bromodomain inhibitors […] and immunoblotted as indicated.
(§4) After heating over a temperature range from 44.5° C. to 55.6° C. for 5 min, MT330 cells were lysed and then immunoblotted for BRG1 or BRM.

The target in a further data set is T2, BRM bromodomain (Homo sapiens, UniProt P51531).
T2 construct: expressed in transfected cells; host or cells: MT330 glioblastoma cells
Nature of the data set: Cellular thermal shift assay (CETSA), BRM bromodomain construct in MT330 cells. It is filed as binding. As to conditions: FIG. 3. The procedure: as §3, §4

The subject of another data set is MT330 GBM cells. Nature of the data set: Cell death ELISA in MT330 GBM cells. It is filed as cell-based. The procedure:
Control cells were treated with vehicle (DMSO). Cell death was determined at 72 hr after treatment by a cell death ELISA that quantifies histone-complexed DNA fragments. […]
Parental and BRG1 knockout MT330 cells were treated with bleomycin (0.01 μM) and bromodomain inhibitors […]. After 72 hr, cell death was determined by cell death ELISA.
The biological activity of bromodomain inhibitors was assessed for the ability to enhance TMZ-induced cell death. In brief, MT330 cells were treated with […] of bromodomain inhibitors alone, or in combination with […] of TMZ for 72 hrs, and GBM cell death was determined by a commercial ELISA.

For data set [1], the system named is intracranial GBM xenografts (MT330 cells). Nature of the data set: Orthotopic GBM model, MT330 cells injected into brains of NSG mice. Type of data set: in vivo. The procedure:
MT330 cells (10^6) were injected into the brains of NSG female mice. After tumors were identified by BLI (˜10 days post-injection), mice were IP injected with TMZ (60 mg/Kg body weight) or IV-129 (10 mg/Kg) alone or in combination 3 times per week (5 mice per group) for 2 weeks. […] FIG. 5C Kaplan-Meier analysis of the survival data (5 mice/group) of the brain tumor-bearing mice was performed.
MT330 cells […] were injected into the brains of NSG female mice. After tumors were identified by BLI (˜10 days post-injection), mice were IP injected with TMZ (10 mg/Kg body weight), IV-255 or IV-275 (20 mg/Kg) alone or in combination 3 times per week (5 mice/group).
Luciferase-expressing MT330 cells were injected into the brains of immunocompromised NSG mice. Once tumors were identified by bioluminescence imaging (BLI) at ˜10 days after tumor cell injection, mice were subjected to intraperitoneal injection of TMZ or YH-IV-129 alone, or in combination. At 20 days after initiation of treatment, live animal imaging was performed on an IVIS Lumina instrument. […] The mean survival of control mice was 27 days after cell injection (FIG. 5C).
Luciferase-expressing MT330 cells were injected into the brains of immunocompromised NSG mice. Once tumors were identified by bioluminescence imaging (BLI) at ˜10 days after tumor cell injection, mice were subjected to intraperitoneal injection of TMZ or YH-IV-255 or YH-IV-275 alone, or in combination. […] This is compelling preliminary evidence that these two new compounds have potent anticancer activity in intracranial GBM xenografts when combined with standard-of-care TMZ chemotherapy and that these drugs cross the blood-brain barrier.

The nature of data set [2]: Tolerability in mice not injected with tumor cells. Type of data set: in vivo. As to conditions: at the drug doses used.
Data set [3] relates to T98G GBM cells. Nature of the data set: Cell death ELISA in TMZ-resistant T98G cells. Type of data set: cell-based. As to conditions: TMZ (500 μM) and inhibitor (10 μM), 72 hr. The procedure:
as §1, §2
For orientation: In an ELISA, binding on a coated surface is turned into a signal by an enzyme label.

Data set [4] deals with T98G GBM cells. Nature of the data set: IncuCyte live cell imaging proliferation assay. It is filed as cell-based. As to conditions: TMZ (500 μM) plus bromodomain inhibitors (20 μM), FIG. 2. The procedure:
T98G GBM cells were treated with TMZ (500 μM), the bromodomain inhibitors (20 μM), and cell proliferation was determined by Incucyte live cell assays using cellular confluence method. The data was normalized to the calculated cell confluence at day 0. Control cells were treated with vehicle (DMSO).
To further characterize the biological activity of selected bromodomain inhibitors, YH-IV-129, YH-IV-181 and YH-IV-191, IncuCyte live cell imaging proliferation assays were performed with the highly TMZ-resistant T98G GBM cell line.

Where [5] appears, read: vehicle control band disappearing at 49.8° C.

T1 sequence (P51532 1453-1564 limits assumed): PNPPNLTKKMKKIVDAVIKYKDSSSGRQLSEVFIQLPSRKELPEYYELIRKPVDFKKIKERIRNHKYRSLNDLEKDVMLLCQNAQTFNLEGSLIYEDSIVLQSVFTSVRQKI
T2 sequence (P51531 1378-1506 limits assumed): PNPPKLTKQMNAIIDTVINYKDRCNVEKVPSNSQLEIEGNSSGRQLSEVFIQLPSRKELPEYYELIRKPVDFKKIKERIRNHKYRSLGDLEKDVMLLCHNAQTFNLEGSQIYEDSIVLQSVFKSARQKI

As for `COc1ccc(N2C[C@H]3C[C@@H]2CN3C(=O)OC(C)(C)C)cc1` [YH-IV-129, (1R,4R)-tert-butyl 5-(4-methoxyphenyl)-2,5-diazabicyclo[2.2.1]heptane-2-carboxylate], the “sensitization to cell-death inducing effects of TMZ” value was “much more potent than PFI-3” in the data set with U87 GBM cells; “more potent than PFI-3 as a chemosensitizer to TMZ” in the data set on U87 GBM cells (listed as IV-129); “much more potent than PFI-3” in the data set with T98G GBM cells [3] (FIG. 4); “more potent than PFI-3 as a chemosensitizer to TMZ” in the data set on T98G GBM cells [3] (FIG. 4, listed as IV-129). Besides, the “thermostability of the BRG1 BRD” value on BRG1 bromodomain (30 μM, heating 44.5° C. to 55.6° C. for 5 min, immunoblot) is given as “significantly increased the thermostability”. In addition, at BRG1 bromodomain (setting [5]), the “temperature at which the BRG1 BRD protein band is undetectable” value came out at 54.20 °C. Besides, at BRM bromodomain (heating 44.5° C. to 55.6° C. for 5 min, immunoblot), the “thermostability of the BRM BRD” value is “significantly increased the thermostability”. Also, the “temperature at which the BRM BRD protein band is undetectable” value at BRM bromodomain (setting [5]) came out at 54.20 °C. In the data set on MT330 GBM cells (10 mM inhibitor in combination with 200 mM of TMZ, 72 hrs, FIG. 1), the “enhancement of TMZ-induced cell death” value was “better efficacy than PFI-3; also recorded: markedly enhanced TMZ sensitivity of GBM cells in vitro”. Besides, in the data set on MT330 GBM cells (bleomycin (0.01 μM) and bromodomain inhibitors (10 μM), 72 hr, FIG. 9), the “enhancement of bleomycin-induced cell death” value was “sensitized GBM cells to bleomycin-induced cell death”. Moreover, the “cell death, inhibitor alone” value in the data set with MT330 GBM cells (bromodomain inhibitors (10 μM) alone, 72 hr, FIG. 9) was “none of the bromodomain inhibitors (YH-IV-129, YH-IV-255 and YH-IV-275) alone had any death inducing activity”. Also, the “mean survival, combination with TMZ” value in data set [1] (TMZ (60 mg/Kg) and IV-129 (10 mg/Kg) IP, control mice 27 days after cell injection, FIG. 5C) is listed as 48 days. In addition, in data set [1] (TMZ (60 mg/Kg) or IV-129 (10 mg/Kg) alone IP, control mice 27 days, FIG. 5C), the “mean survival, either agent alone” value is 35 days. Besides, in data set [1] (combination with TMZ (60 mg/Kg) and IV-129 (10 mg/Kg) IP 3 times per week for 2 weeks, 20 days after treatment, versus either agent alone), the “tumor size by bioluminescence (BLI)” value was “much smaller tumors”. Moreover, in data set [1] (combination with TMZ, 20 days post-treatment, versus either agent alone, FIG. 5B), the weight loss entry is on record as “weight loss was much lower”. The “crossing of the blood-brain barrier” value in data set [1] (inferred from activity in intracranial GBM xenografts) is on record as “crosses the blood-brain barrier”. The “adverse effects on health, behavior or weight” value in data set [2] is “no adverse effects on the health, behavior or weight of mice”. In addition, the “sensitization to the antiproliferative action of TMZ” value in the data set with T98G GBM cells [4] is listed as “potently sensitized T98G GBM cells to the antiproliferative action of TMZ”.

Values taken from patent publication US20240316043A1, “BROMODOMAIN INHIBITORS FOR CANCER THERAPY” (University of Tennessee Research Foundation, priority 2023, published 2024).
